The values below come from patent US8916551B2, “Heterocyclic compound and use thereof” (Takeda Pharmaceutical Company Limited, priority 2010, dated 2014).

This assay has as its target T1, AMPA receptor (human GluR1 flip/stargazin expressed in CHO-K1 cells) (Homo sapiens, UniProt P42261).
T1 construct: expressed in transfected cells; host or cells: CHO-K1
Nature of the assay: AMPA receptor function enhancing activity using calcium influx as index. The settings on record: test compound 30 μM with glutamic acid final 3 mM, change in fluorescence in 3 min, 100% = 3 mM glutamic acid + 300 μM cyclothiazide, 0% = 3 mM glutamic acid only. The format is cell-based. From the text:
Human GluR1 flip cDNA was amplified by PCR using forward primer […] (SEQ ID NO: 1) and reverse primer […] (SEQ ID NO: 2) artificially synthesized using human brain-derived cDNA (BD Bio science) as a template. The amplified product was digested with restriction enzymes EcoRI, NotI (TAKARA SHUZO CO. LTD.), and incorporated into the same site of pcDNA3.1(+) (Invitrogen) to construct pcDNA3.1(+)/human GluR1 flip gene. Human stargazin cDNA was amplified by PCR using forward primer […] (SEQ ID NO: 3) and reverse primer […] (SEQ ID NO: 4) artificially synthesized using human hippocampus cDNA as a template. The amplified product was digested with restriction enzymes XhoI, BamHI (TAKARA SHUZO CO. LTD.), and incorporated into the same site of pcDNA3.1(−) (Invitrogen) to construct pcDNA3.1 Zeo(−)/human stargazin gene.
CHO-K1 cells passaged in a culture medium (Ham's F12 medium (Invitrogen) added with 10% inactivated fetal bovine serum (Morgate) and penicillin, streptomycin (Invitrogen)) were detached with 0.05% trypsin, 0.53 mM EDTA (Invitrogen) diluted with D-PBS(−). The detached cells were suspended in a culture medium, and recovered by a centrifugation operation at 1,000 rpm. The recovered cells were suspended again in D-PBS(−), and added to a 0.4 cm electroporation cuvette (BioRad). pcDNA3.1(+)/human GluR1 flip gene (5 μg) and pcDNA3.1 Zeo(−)/human stargazin gene (15 μg) were added, and the mixture was introduced into CHO-K1 cells using Gene Pulser II (BioRad) under the conditions of 950 μFd, […]. The introduced cells were cultured overnight in a culture medium and, the next day, plated in a 96 well plate at 250 cells/well using a selection medium (culture medium added with Zeocin (Invitrogen) to 250 μg/mL). Clones showing drug resistance were selected, and GluR1 flip/stargazin expressing clones were selected by an assay method using calcium influx as an index as shown below.
CHO-K1/GluR1 flip/stargazin expressing cells were plated on a 96 well black transparent bottom plate (Costar) at 2×10^4 cells/well, and cultured in a 37° C., CO2 incubator (SANYO Electric Co., Ltd.) for 2 days. The medium in the cell plate was removed, and assay buffer A (D-MEM (Invitrogen), 0.1% BSA (Serogical Protein), 20 mM HEPES (Invitrogen)) was added at 50 μL/well. A calcium indicator (Calcium 4 Assay Kit, Invitrogen) added with 2.5 mM probenecid (Invitrogen) was added at 50 μL/well and the well was left standing in 37° C., CO2 incubator for 1 hr. The cell plate was set in CellLux (PerkinElmer), a mixture (50 μL) of 9 mM glutamic acid diluted with assay buffer B (HBSS (Invitrogen), 0.1% BSA, 20 mM HEPES) (final concentration 3 mM) and a test compound (test compound concentration 30 μM) was added, and the amount of change in fluorescence level in 3 min was measured. In the definition here, the amount of change in fluorescence level of well added with glutamic acid at final concentration 3 mM and 300 μM cyclothiazide (TOCRIS) is 100%, the amount of change in fluorescence level of well added only with glutamic acid at final concentration 3 mM is 0%, and the compound activity was calculated according to the following formula. activity(%)=(X−C)/(T−C)×100 T: amount of change in fluorescence level of well added with glutamic acid at final concentration 3 mM and 300 μM cyclothiazide C: amount of change in fluorescence level of well added only with glutamic acid at final concentration 3 mM X: amount of change in fluorescence level of well added with test compound

T1 sequence (P42261 19-906 isoform P42261-2 limits assumed): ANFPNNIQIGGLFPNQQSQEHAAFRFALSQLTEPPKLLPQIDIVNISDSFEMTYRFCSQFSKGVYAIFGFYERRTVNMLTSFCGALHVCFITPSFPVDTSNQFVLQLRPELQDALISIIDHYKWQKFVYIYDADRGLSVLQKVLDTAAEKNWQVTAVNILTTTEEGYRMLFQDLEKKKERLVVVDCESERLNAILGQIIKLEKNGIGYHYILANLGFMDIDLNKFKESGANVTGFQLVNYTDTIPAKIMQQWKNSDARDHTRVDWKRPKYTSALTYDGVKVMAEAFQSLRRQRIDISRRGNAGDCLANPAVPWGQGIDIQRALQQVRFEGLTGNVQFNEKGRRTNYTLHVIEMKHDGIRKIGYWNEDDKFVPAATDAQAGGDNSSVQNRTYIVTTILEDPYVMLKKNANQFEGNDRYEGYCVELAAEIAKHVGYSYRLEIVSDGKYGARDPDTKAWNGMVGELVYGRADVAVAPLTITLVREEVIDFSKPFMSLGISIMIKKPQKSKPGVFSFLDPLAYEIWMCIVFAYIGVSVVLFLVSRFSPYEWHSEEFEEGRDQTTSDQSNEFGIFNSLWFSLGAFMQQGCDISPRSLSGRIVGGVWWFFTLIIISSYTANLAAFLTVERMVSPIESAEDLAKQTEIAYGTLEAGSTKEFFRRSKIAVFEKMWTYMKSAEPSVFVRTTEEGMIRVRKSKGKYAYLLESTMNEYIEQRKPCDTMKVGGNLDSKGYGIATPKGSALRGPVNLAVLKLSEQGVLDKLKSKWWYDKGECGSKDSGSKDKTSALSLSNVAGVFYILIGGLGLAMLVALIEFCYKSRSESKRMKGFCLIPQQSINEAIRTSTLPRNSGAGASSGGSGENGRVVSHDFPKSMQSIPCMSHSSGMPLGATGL
T1 sequence (Q9Y698 whole entry partner): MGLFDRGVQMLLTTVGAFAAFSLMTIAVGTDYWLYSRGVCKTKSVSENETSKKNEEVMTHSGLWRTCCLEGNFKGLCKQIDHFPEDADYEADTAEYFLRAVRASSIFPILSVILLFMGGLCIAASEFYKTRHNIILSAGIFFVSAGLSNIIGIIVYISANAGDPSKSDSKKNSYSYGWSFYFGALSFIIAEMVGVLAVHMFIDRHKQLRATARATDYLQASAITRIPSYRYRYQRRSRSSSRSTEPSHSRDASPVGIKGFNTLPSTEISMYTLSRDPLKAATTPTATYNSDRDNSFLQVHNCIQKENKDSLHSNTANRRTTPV

`O=S1(=O)CCN2CCCC(c3ccc(-c4ccccc4)c(F)c3)C2=N1` (stereo not drawn) [Example 97, 9-(2-fluorobiphenyl-4-yl)-3,4,6,7,8,9-hexahydropyrido[2,1-c][1,2,4]thiadiazine 2,2-dioxide]: the “activity (%)” value was 86%.
For the molecule `COc1cccc(Oc2ccc(C3CCCN4CCS(=O)(=O)N=C34)cc2)c1` (stereo not drawn) [Example 98, 9-[4-(3-methoxyphenoxy)phenyl]-3,4,6,7,8,9-hexahydropyrido[2,1-c][1,2,4]thiadiazine 2,2-dioxide], the “activity (%)” value came to 71%.
`CC1CC(c2ccc(Oc3ccccc3)cc2)C2=NS(=O)(=O)CCN2C1` (stereo not drawn) [Example 99, 7-methyl-9-(4-phenoxyphenyl)-3,4,6,7,8,9-hexahydropyrido[2,1-c][1,2,4]thiadiazine 2,2-dioxide]: the “activity (%)” value is given as 73%.
The same measure for `Cc1cc(C2=CC=CN3CCS(=O)(=O)N=C23)ccc1-c1ccccc1` [Example 101, 9-(2-methylbiphenyl-4-yl)-3,4-dihydropyrido[2,1-c][1,2,4]thiadiazine 2,2-dioxide]: 84%; for `Cc1cc(C2CCCN3CCS(=O)(=O)N=C23)ccc1-c1ccccc1` (stereo not drawn) [Example 102, 9-(2-methylbiphenyl-4-yl)-3,4,6,7,8,9-hexahydropyrido[2,1-c][1,2,4]thiadiazine 2,2-dioxide]: 71%; for `Cc1cc(C2CCCN3CCS(=O)(=O)N=C23)ccc1-c1ccccc1` (stereo not drawn) [Example 103, 9-(2-methylbiphenyl-4-yl)-3,4,6,7,8,9-hexahydropyrido[2,1-c][1,2,4]thiadiazine 2,2-dioxide]: 81%.
Turning to `Cc1ccc(-c2ccc(C3CCCN4CCS(=O)(=O)N=C34)cc2)cc1` (stereo not drawn) [Example 105, 9-(4′-methylbiphenyl-4-yl)-3,4,6,7,8,9-hexahydropyrido[2,1-c][1,2,4]thiadiazine 2,2-dioxide], the “activity (%)” value was 87%.
Consider `COc1cccc(-c2ccc(C3CCCN4CCS(=O)(=O)N=C34)cc2)c1` (stereo not drawn) [Example 106, 9-(3′-methoxybiphenyl-4-yl)-3,4,6,7,8,9-hexahydropyrido[2,1-c][1,2,4]thiadiazine 2,2-dioxide], for which the “activity (%)” value is listed as 98%.
In the case of `Cc1ccc(Oc2ccc(C3CCCN4CCS(=O)(=O)N=C34)cc2)cc1` (stereo not drawn) [Example 108, 9-[4-(4-methylphenoxy)phenyl]-3,4,6,7,8,9-hexahydropyrido[2,1-c][1,2,4]thiadiazine 2,2-dioxide], the “activity (%)” value is recorded as 68%.
As for `Cc1ccc(Oc2ccc(C3CCCN4CCS(=O)(=O)N=C34)cc2)cc1` (stereo not drawn) [Example 109, 9-[4-(4-methylphenoxy)phenyl]-3,4,6,7,8,9-hexahydropyrido[2,1-c][1,2,4]thiadiazine 2,2-dioxide], the “activity (%)” value is 88%.
With `Cc1cc(Oc2ccc(C3=CC=CN4CCS(=O)(=O)N=C34)cc2)ccc1F` [Example 111, 9-[4-(4-fluoro-3-methylphenoxy)phenyl]-3,4-dihydropyrido[2,1-c][1,2,4]thiadiazine 2,2-dioxide], the “activity (%)” value was 58%.
The same measure for `Cc1cc(Oc2ccc(C3CCCN4CCS(=O)(=O)N=C34)cc2)ccc1F` (stereo not drawn) [Example 112, 9-[4-(4-fluoro-3-methylphenoxy)phenyl]-3,4,6,7,8,9-hexahydropyrido[2,1-c][1,2,4]thiadiazine 2,2-dioxide]: 79%; for `Cc1cc(Oc2ccc(C3CCCN4CCS(=O)(=O)N=C34)cc2)ccc1F` (stereo not drawn) [Example 113, 9-[4-(4-fluoro-3-methylphenoxy)phenyl]-3,4,6,7,8,9-hexahydropyrido[2,1-c][1,2,4]thiadiazine 2,2-dioxide]: 86%; for `Cc1ccccc1Oc1ccc(C2=CC=CN3CCS(=O)(=O)N=C23)cc1` [Example 115, 9-[4-(2-methylphenoxy)phenyl]-3,4-dihydropyrido[2,1-c][1,2,4]thiadiazine 2,2-dioxide]: 80%.
The same measure for `Cc1ccccc1Oc1ccc(C2CCCN3CCS(=O)(=O)N=C23)cc1` (stereo not drawn) [Example 116, 9-[4-(2-methylphenoxy)phenyl]-3,4,6,7,8,9-hexahydropyrido[2,1-c][1,2,4]thiadiazine 2,2-dioxide]: 69%; for `Cc1cccc(Oc2ccc(C3=CC=CN4CCS(=O)(=O)N=C34)cc2)c1` [Example 117, 9-[4-(3-methylphenoxy)phenyl]-3,4-dihydropyrido[2,1-c][1,2,4]thiadiazine 2,2-dioxide]: 90%.
On to `Cc1cccc(Oc2ccc(C3CCCN4CCS(=O)(=O)N=C34)cc2)c1` (stereo not drawn) [Example 118, 9-[4-(3-methylphenoxy)phenyl]-3,4,6,7,8,9-hexahydropyrido[2,1-c][1,2,4]thiadiazine 2,2-dioxide], for which the “activity (%)” value is 79%.
On to `Cc1cccc(Oc2ccc(C3CCCN4CCS(=O)(=O)N=C34)cc2)c1` (stereo not drawn) [Example 119, 9-[4-(3-methylphenoxy)phenyl]-3,4,6,7,8,9-hexahydropyrido[2,1-c][1,2,4]thiadiazine 2,2-dioxide], for which the “activity (%)” value worked out at 92%.
For `Cc1cc(C(F)(F)F)ccc1Oc1ccc(C2=CC=CN3CCS(=O)(=O)N=C23)cc1` [Example 121, 9-{4-[2-methyl-4-(trifluoromethyl)phenoxy]phenyl}-3,4-dihydropyrido[2,1-c][1,2,4]thiadiazine 2,2-dioxide], the “activity (%)” value worked out at 71%.
As to `Cc1cc(C(F)(F)F)ccc1Oc1ccc(C2CCCN3CCS(=O)(=O)N=C23)cc1` (stereo not drawn) [Example 122, 9-{4-[2-methyl-4-(trifluoromethyl)phenoxy]phenyl}-3,4,6,7,8,9-hexahydropyrido[2,1-c][1,2,4]thiadiazine 2,2-dioxide], the “activity (%)” value turned out to be 58%.
For `Cc1cc(C(F)(F)F)ccc1Oc1ccc(C2CCCN3CCS(=O)(=O)N=C23)cc1` (stereo not drawn) [Example 123, 9-{4-[2-methyl-4-(trifluoromethyl)phenoxy]phenyl}-3,4,6,7,8,9-hexahydropyrido[2,1-c][1,2,4]thiadiazine 2,2-dioxide], the “activity (%)” value is listed as 57%.
In the case of `COc1ccc2cc(C3=CC=CN4CCS(=O)(=O)N=C34)ccc2c1` [Example 126, 9-(6-methoxynaphthalen-2-yl)-3,4-dihydropyrido[2,1-c][1,2,4]thiadiazine 2,2-dioxide], the “activity (%)” value turned out to be 72%.
Turning to `COc1ccc2cc(C3CCCN4CCS(=O)(=O)N=C34)ccc2c1` (stereo not drawn) [Example 127, 9-(6-methoxynaphthalen-2-yl)-3,4,6,7,8,9-hexahydropyrido[2,1-c][1,2,4]thiadiazine 2,2-dioxide], the “activity (%)” value was found to be 79%.
For the molecule `COc1ccc2cc(C3CCCN4CCS(=O)(=O)N=C34)ccc2c1` (stereo not drawn) [Example 128, 9-(6-methoxynaphthalen-2-yl)-3,4,6,7,8,9-hexahydropyrido[2,1-c][1,2,4]thiadiazine 2,2-dioxide], the “activity (%)” value is recorded as 98%.
In the case of `COc1ccc2cc(C3CCCN4CCS(=O)(=O)N=C34)ccc2c1` (stereo not drawn) [Example 129, 9-(6-methoxynaphthalen-2-yl)-3,4,6,7,8,9-hexahydropyrido[2,1-c][1,2,4]thiadiazine 2,2-dioxide], the “activity (%)” value turned out to be 100%.
The same measure for `CCc1cccc(Oc2ccc(C3=CC=CN4CCS(=O)(=O)N=C34)cc2)c1` [Example 130, 9-[4-(3-ethylphenoxy)phenyl]-3,4-dihydropyrido[2,1-c][1,2,4]thiadiazine 2,2-dioxide]: 69%.
The same measure for `CCc1cccc(Oc2ccc(C3CCCN4CCS(=O)(=O)N=C34)cc2)c1` (stereo not drawn) [Example 131, 9-[4-(3-ethylphenoxy)phenyl]-3,4,6,7,8,9-hexahydropyrido[2,1-c][1,2,4]thiadiazine 2,2-dioxide]: 58%.
